The values below come from article PMC8199339, “Propellanes as Rigid Scaffolds for the Stereodefined Attachment of σ-Pharmacophoric Structural Elements to Achieve σ Affinity” (International Journal of Molecular Sciences, 2021).

Structures are written as SMILES. Read-outs that look alike come from different tables or passages of the source.

Data set [1] deals with T1, σ1 receptor (Cavia porcellus, UniProt Q60492).
T1 construct: thawed membrane preparation of guinea pig brain; tissue Harlan-Winkelmann, Borchen, Germany (animal organs); host or cells: guinea pig brain membrane homogenate
The experiment in a line: σ1 receptor binding assay, radioligand [3H]-(+)-pentazocine, guinea pig brain membrane preparation. The note with it: for inhibition of the radioligand binding, σ1 / inhibition at 1 µM: test compound concentration of 1 µM; for inhibition of the radioligand binding, σ1: 1 µM.

The target in data set [2] is T2, σ2 receptor (Rattus norvegicus, UniProt Q5U3Y7).
T2 construct: The thawed rat liver membrane preparation; tissue Harlan-Winkelmann, Borchen, Germany (animal organs); host or cells: rat liver membrane homogenate
T2 sequence (Q5U3Y7 1-176): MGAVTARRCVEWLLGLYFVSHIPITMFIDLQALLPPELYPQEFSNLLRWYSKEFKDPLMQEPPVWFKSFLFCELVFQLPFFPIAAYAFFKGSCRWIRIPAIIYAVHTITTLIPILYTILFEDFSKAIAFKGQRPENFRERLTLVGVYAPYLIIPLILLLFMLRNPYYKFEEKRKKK
Briefly: σ2 receptor binding assay, radioligand [3H]di-o-tolylguanidine, rat liver membrane preparation. The note with it: for inhibition of the radioligand binding, σ2 / inhibition at 1 µM: test compound concentration of 1 µM.

Data set [3] concerns the target T2, σ2 receptor. The note with it: cited from earlier work; for inhibition of the radioligand binding, σ2: test compound concentration of 1 µM, already reported, 1 µM.
The target of data set [4] is T1, σ1 receptor. Particulars: cited from earlier work.
In data set [5] the target is σ1 receptor. Particulars: cited from earlier work; for Ki: Figure 2.
The target of data set [6] is σ2 receptor. The note with it: cited from earlier work; for Ki: Figure 2.
Setting [7] is: azapropellanes 9, already reported.
Where [8] appears, read: [3H]-(+)-pentazocine, guinea pig brain, mean of three experiments (± SEM), values without SEM mean of two, read-out: Ki (nM) σ1.

T1 sequence (Q60492 whole entry): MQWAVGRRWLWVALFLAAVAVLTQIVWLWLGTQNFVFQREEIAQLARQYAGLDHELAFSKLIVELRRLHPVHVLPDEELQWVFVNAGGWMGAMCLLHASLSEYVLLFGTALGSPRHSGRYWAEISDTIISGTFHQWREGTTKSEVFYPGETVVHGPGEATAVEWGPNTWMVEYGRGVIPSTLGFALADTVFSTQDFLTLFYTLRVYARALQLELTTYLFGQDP

`COc1ccc(C)cc1NC(=O)N(Cc1ccccc1)C1CC23CCCCC2(CC(=O)C3)C1` (stereo not drawn) [anti-21, 1 -Benzyl-3-(2-methoxy-5-methylphenyl)-1-(anti-11-oxo-[4.3.3]propellan-8-yl)urea] came in with a melting point of 133 to 136 °C. The “inhibition of the radioligand binding, σ1” value (“inhibition … σ1” for short) at σ1 receptor [1] is 5%. For the same compound, the “inhibition of the radioligand binding, σ2” value (“inhibition … σ2” for short) on σ2 receptor [2] (1 µM) amounted to 12%.
Regarding `O=C(Nc1ccc(F)c(F)c1)NC1CC23CCCCC2(CCC3)C1` (stereo not drawn) [23d, 1-(3,4-Difluorophenyl)-3-(syn- and anti-[4.3.3]propellan-8-yl)urea], the melting point fell in the range of 168 to 175 °C. The compound further returned an inhibition at 1 µM on σ1 receptor [1] of 0%. Also, at σ2 receptor [2], 1 µM produced 0% inhibition.
As to `O=C(NC1CCCCC1)NC1CC23CCCCC2(CCC3)C1` (stereo not drawn) [23b, 1 -Cyclohexyl-3-(syn- and anti-[4.3.3]propellan-8-yl)urea], the melting point fell in the range of 187 to 193 °C. On σ1 receptor [1], testing at 1 µM gave an inhibition of 0%. Also, at σ2 receptor [2], testing at 1 µM gave an inhibition of 0%.
Turning to `COc1ccc(C)cc1NC(=O)OC1CC23CCCCC2(C1)CN(Cc1ccccc1)CC3` (stereo not drawn) [syn-5], the “inhibition … σ2” value at σ2 receptor [3] is 0%. The “inhibition … σ1” value at σ1 receptor [4] (test compound concentration of 1 µM, already reported) was 12%.
As for `c1ccc(CN2CC34CCCCC3(CCC4)C2)cc1` (centres unmarked) [9a], the figures for the Ki on σ2 receptor [3] (setting [7]) and at σ1 receptor [4] (setting [7]) were 190 nM and 17 ± 12 nM, respectively. The “selectivity for the σ1 receptor over the σ2 receptor” value at σ1 receptor [1] (σ1 over σ2) is reported as “at least 10 fold”.
On to `c1ccc2c(CCNC3CC45CCCCC4(CCC5)C3)c[nH]c2c1` (stereo not drawn) [compound 15, syn- and anti-N-[2-(Indol-3-yl)ethyl]-[4.3.3]propellan-8-amine], for which the melting point is 109 to 111 °C. On σ1 receptor [1] (Ki (nM) σ1), this compound gave a Ki of 598 nM. At σ2 receptor [2], this compound came in with an inhibitory constant (Ki) of 974 nM.
As to `CN(C)c1ccc(CNC2CC34CCCCC3(CCC4)C2)cc1` (stereo not drawn) [compound 17, syn- and anti-N-(4-(Dimethylaminobenzyl)-[4.3.3]propellan-8-amine], the melting point was 89 to 91 °C. Further, the inhibition constant Ki on σ1 receptor [1] (setting [8]) is 1200 nM. Further, the inhibition at 1 µM at σ2 receptor [2] is 1%.
Consider `O=C(Nc1ccc(F)c(F)c1)NC1CC23CCCCC2(CC(O)C3)C1` (mixture of isomers) [8-syn-26, 1-(3,4-Difluorophenyl)-3-(8-syn-11-syn- and 8-syn-11-anti-11-hydroxy[4.3.3]-propellan-8-yl)urea], for which the melting point was in the range of 171 to 178 °C. This compound also yielded an inhibition at 1 µM on σ1 receptor [1] of 10%. Further, the inhibition at 1 µM at σ2 receptor [2] was 0%.
Compound `OC1CC23CCCCC2(C1)CC(NCc1ccccc1)C3` (mixture of isomers) [11-anti-13, [(8-anti-11-anti and 8-anti-11-syn)-11-(Benzylamino)[4.3.3]propellan-8-ol] displayed a melting point of 121 to 123 °C. This compound returned an inhibition at 1 µM at σ1 receptor [1] of 29%. Further, on σ2 receptor [2] (read-out: Ki (nM) σ2), the Ki worked out at 1070 nM.
`O=C(Nc1ccccc1)NC1CC23CCCCC2(CCC3)C1` (stereo not drawn) [23a, 1 -Phenyl-3-(syn- and anti-[4.3.3]propellan-8-yl)urea] registered a melting point of 134 to 138 °C. On σ1 receptor [1], this compound gave an inhibition at 1 µM of 0%. Further, on σ2 receptor [2], the inhibition at 1 µM is 15%.
For the compound `COc1ccc(C)cc1NC(=O)OC1CC23CCCCC2(C1)CN(Cc1ccccc1)CC3` (stereo not drawn) [anti-5], the “inhibition … σ2” value at σ2 receptor [3] is reported as 8%. Moreover, the Ki on σ1 receptor [4] (propellanamines 4a and azapropellanes 5, already reported) is 82 ± 54 nM.
On to `COc1ccc(CN2CC3CCCC2CN3Cc2ccccc2)cc1` (centres unmarked) [compound 2], for which, at σ1 receptor [5], the Ki was 0.91 nM and the “selectivity for σ1 against/over the σ2 subtype” value is “more than 40 fold”. In addition, the Ki at σ2 receptor [6] was 39 nM.
On to `COc1ccc(C)cc1NC(=O)OC1CC2CCCC(C1)N2Cc1ccccc1` (centres unmarked) [compound 3], for which the results for the Ki on σ1 receptor [5] and on σ2 receptor [6] were 92.5 nM and 3.1 nM, respectively. Besides, the “preference for the σ2 receptor” value with σ2 receptor [6] (σ2 over σ1) is 30 fold.
`COc1ccc(C)cc1NC(=O)NC1CC23CCCCC2(CCC3)C1` (stereo not drawn) [23c, 1-(2-Methoxy-5-methylphenyl)-3-(syn- and anti-[4.3.3]propellan-8-yl)urea] came in with a melting point of 215 to 220 °C. For the same compound, on σ1 receptor [1], the inhibition at 1 µM was 0%. At σ2 receptor [2], this compound came in with an inhibition at 1 µM of 0%.
As for `FCC[C@@H]1OC2(CCN(Cc3ccccc3)CC2)c2ccccc21` [compound 1, (S)-fluspidine], at σ1 receptor [5], the Ki was 2.3 nM and the “selectivity for σ1 against/over the σ2 subtype” value is listed as 300 fold. Besides, on σ2 receptor [6], the inhibitory constant (Ki) was 897 nM.
As for `COc1ccc(C)cc1NC(=O)OC1CC23CCCCC2(CC(NCCc2c[nH]c4ccccc24)C3)C1` (stereo not drawn) [8-syn-4k, [(8-syn-11-syn and 8-syn-11-anti)-11-[(2-(Indol-3-yl)ethylamino][4.3.3]propellan-8-yl] N-(2-methoxy-5-methylphenyl)carbamate], the figures for the Ki at σ1 receptor [1] (setting [8]) and at σ2 receptor [2] (read-out: Ki (nM) σ2) were 983 nM and 1400 nM, respectively.
With `C1CCC(CNC2CC34CCCCC3(CCC4)C2)CC1` (stereo not drawn) [compound 18, syn- and anti-N-Cyclohexylmethyl[4.3.3]propellan-8-amine], the melting point lay within 108 to 111 °C. In addition, on σ1 receptor [1] (Ki (nM) σ1), the affinity, expressed as Ki, was 34 ± 11 nM. Moreover, the Ki on σ2 receptor [2] (read-out: Ki (nM) σ2) turned out to be 101 nM.
Consider `COc1ccc(C)cc1NC(=O)OC1CC23CCCCC2(CC(NCCCN)C3)C1` (stereo not drawn) [8-anti-4r, [(8-anti-11-anti and 8-anti-11-syn)-11-[(3-Aminopropyl)amino][4.3.3]propellan-8-yl] N-(2-methoxy-5-methylphenyl)carbamate], for which the melting point is 74 to 76 °C. In addition, at σ1 receptor [1], testing at 1 µM gave an inhibition of 16%. For the same compound, the inhibition at 1 µM on σ2 receptor [2] turned out to be 0%.
Regarding `COc1ccc(C)cc1NC(=O)OC1CC23CCCCC2(CC(NCCc2ccccc2)C3)C1` (stereo not drawn) [8-anti-4p, [(8-anti-11-anti and 8-anti-11-syn)-11-(Phenethylamino)[4.3.3]propellan-8-yl] N-(2-methoxy-5-methylphenyl)carbamate], the inhibition constant (Ki) at σ1 receptor [1] (setting [8]) is 668 nM. Further, on σ2 receptor [2], the inhibition at 1 µM came out at 0%.
Compound `COc1ccc(C)cc1NC(=O)N(Cc1ccccc1)C1CC23CCCCC2(CC(=O)C3)C1` (stereo not drawn) [syn-21, 1 -Benzyl-3-(2-methoxy-5-methylphenyl)-1-(syn-11-oxo-[4.3.3]propellan-8-yl)urea] displayed a melting point of 168 to 170 °C. Besides, the “inhibition … σ1” value on σ1 receptor [1] was determined as 13%. On σ2 receptor [2], the inhibition at 1 µM is 14%.
Consider `O=C1CC23CCCCC2(C1)CC(NC(=O)Nc1ccc(F)c(F)c1)C3` (stereo not drawn) [anti-25, 1-(3,4-Difluorophenyl)-3-(8-anti-11-oxo[4.3.3]propellan-8-yl)urea], for which the “inhibition … σ1” value at σ1 receptor [1] is reported as 0%. Besides, the “inhibition … σ2” value at σ2 receptor [2] is recorded as 0%.
As to `COc1ccc(C)cc1NC(=O)OC1CC23CCCCC2(CC(NCCCc2ccccc2)C3)C1` (stereo not drawn) [8-anti-4q, [(8-anti-11-anti and 8-anti-11-syn)-11-(3-Phenylpropylamino)[4.3.3]propellan-8-yl] N-(2-methoxy-5-methylphenyl)carbamate], the values for the inhibition at 1 µM on σ1 receptor [1] and on σ2 receptor [2] were 22% and 0%, respectively.
For `COc1ccc(C)cc1NC(=O)OC1CC23CCCCC2(CC(NCC(C)C)C3)C1` (stereo not drawn) [8-anti-4u, [(8-anti-11-anti and 8-anti-11-syn)-11-(Isobutylamino)[4.3.3]propellan-8-yl] N-(2-methoxy-5-methylphenyl)carbamate], the inhibition at 1 µM on σ1 receptor [1] was determined as 5%. Further, at σ2 receptor [2] (read-out: Ki (nM) σ2), the inhibitory constant (Ki) is 854 nM.
